The values below come from patent publication US8927588B2, “Imidazole carbonyl compound” (Daiichi Sankyo Company, Limited, priority 2007, dated 2015).

Converted amounts (≈) assume the structure as drawn. Read-outs that look alike come from different tables or passages of the source.

Data set [1] addresses ParE of Haemophilus influenzae (Haemophilus influenzae, UniProt P43703). Put plainly: ATP hydrolysis inhibition assay (pyruvate kinase/lactate dehydrogenase coupled), ParE of Haemophilus influenzae. Format: biochemical. As to the method: The ATP hydrolysis activity of GyrB and ParE was determined by correlating it with ADP production and NADH oxidation mediated by pyruvate kinase/lactate dehydrogenase. This method has been previously reported (Tamura, J. K. and Gellert, M. 1990, J. Biol. Chem. 265:21342-21349).
The ATP hydrolysis assay was carried out in a buffer solution containing final concentrations of 100 mM Tris-HCl (pH 7.5), 150 mM KCl, 1.5 mM MgCl2, 0.4 mM nicotinamide adenine dinucleotide (NADH), 2.5 mM phosphoenolpyruvate, 1 mM DTT, 15 U/ml pyruvate kinase, 10.5 U/ml lactate dehydrogenase and 1 mU/ml enzyme (GyrB or ParE of Streptococcus pneumoniae or Haemophilus influenzae) (provided that the concentration of KCl was 25 mM and the concentration of MgCl2 was 10 mM in the case of ParE of Haemophilus influenzae). A solution of the test compound serially four-fold diluted in DMSO:MeOH (7:3) was added at a final concentration of 5% (v/v). […] ATP was added at a final concentration of 1 mM; after mixing, the absorbance at 340 nm (amount of NADH) was determined (provided that the final ATP concentration was 0.3 mM in the case of ParE of Haemophilus influenzae). The reaction solution was incubated at 30° C. for two hours, and then the absorbance at 340 nm was determined. The ATP hydrolysis inhibition rate (%) was calculated from the difference in absorbance before and after the incubation (amount of NADH oxidized). […]

For data set [2], the system named is Haemophilus influenzae. Briefly: Sensitivity of bacteria, broth microdilution method (MIC). Type of data set: cell-based. The note with it: medium obtained by mixing hemophilus test medium with human serum at a ratio of 1:1. As to the method: The antibacterial activity of the compounds of the present invention was tested by sensitivity tests by the broth microdilution method. The assay was carried out according to the latest CLSI guidelines for managing the procedures of sensitivity tests: “M7-A7 Methods for Dilution Antimicrobial Susceptibility Tests for Bacteria That Grow Aerobically; Approved Standard—Seventh Edition (2006)”. Test strains were grown on appropriate agar plates overnight. A broth containing the test compound serially two-fold diluted was dispensed at 100 μL to each well of a 96-well microplate. As a growth control, a well with a broth not containing the test compound was also prepared. Colonies grown on the plates were suspended in saline, adjusted to 0.5 McFarland (OD625=0.08 to 0.10) using a colorimeter, and then diluted ten-fold with saline. The bacterial suspension was inoculated at 4 μL into each well of the microplate using a bacterial suspension inoculation apparatus. The inoculated microplate was incubated at 35° C. overnight (about 20 hours). The growth condition was observed by the naked eye, and the minimum concentration to inhibit bacterial proliferation was defined as a minimum inhibitory concentration (MIC).
A general note: In broth dilution the organism is exposed to a series of concentrations in liquid medium.

The test system of data set [3] is HeLa cell proliferation. Briefly: Cytotoxicity test, HeLa cell proliferation (MTS-PMS). Format: cell-based. The note with it: human, HeLa cells, 48 hours incubation, read-out: IC50 (cytotoxicity, proliferation inhibition). As to the method: 50 μL of a HeLa cell solution containing 80000 cells/mL was inoculated into each well of a 96-well microplate, and the mixture was incubated at 37° C. in a 5% carbon dioxide incubator for 24 hours. Thereafter, a medium containing the test compound serially four-fold diluted was added at 50 μL to each well, and the mixture was incubated at 37° C. in a 5% carbon dioxide incubator for 48 hours. As a control with an inhibition rate of 0%, a well not containing the test compound was also prepared. Following washing with phosphate buffered saline, a MTS [3-(4,5-dimethylthiazol-2-yl)-5-(3-carboxymethoxyphenyl)-2-(4-sulphophenyl)-2H-tetrazolium, inner salt]-PMS (phenazine methosulfate) coloring reagent solution was added, and the mixture was allowed to stand at 37° C. in a 5% carbon dioxide incubator for 1.5 hours. Thereafter, the absorbance at 490 nm was determined. The 50% inhibition concentration (IC50) was calculated from the proliferation inhibition rate (%) in the presence of four different concentrations of the test compound.

Data set [4] can be described thus: Solubility in water (JP1 fluid / JP2 fluid). Format: physicochemical. The following applies: thermodynamic from solid, room temperature.

ParE of Haemophilus influenzae, sequence (P43703 whole entry): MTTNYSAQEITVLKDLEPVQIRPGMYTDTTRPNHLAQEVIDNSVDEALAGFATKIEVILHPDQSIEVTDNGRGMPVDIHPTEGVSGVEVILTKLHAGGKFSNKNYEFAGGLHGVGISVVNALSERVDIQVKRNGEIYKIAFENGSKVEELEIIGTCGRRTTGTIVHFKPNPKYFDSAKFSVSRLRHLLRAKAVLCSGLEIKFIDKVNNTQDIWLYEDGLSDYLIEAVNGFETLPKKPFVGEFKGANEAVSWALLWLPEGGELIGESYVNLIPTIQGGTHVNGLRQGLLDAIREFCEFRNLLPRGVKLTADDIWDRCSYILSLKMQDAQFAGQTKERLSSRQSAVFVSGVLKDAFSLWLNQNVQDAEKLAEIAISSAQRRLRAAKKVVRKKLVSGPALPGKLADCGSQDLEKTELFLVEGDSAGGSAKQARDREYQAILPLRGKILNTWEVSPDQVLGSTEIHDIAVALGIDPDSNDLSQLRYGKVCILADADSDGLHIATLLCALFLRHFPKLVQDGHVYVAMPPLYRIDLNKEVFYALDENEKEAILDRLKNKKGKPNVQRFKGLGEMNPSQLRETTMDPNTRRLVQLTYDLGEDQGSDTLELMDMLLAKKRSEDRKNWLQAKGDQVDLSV

Usually solubility stands for how much of the substance goes into solution per volume. For `CO[C@H]1CN(c2nc3cccc(C(=O)O)c3s2)CC[C@H]1NC(=O)c1nc(Cl)c(C)[nH]1` (racemic) [Example 8, cis(±)-2-(4-{[(4-Chloro-5-methyl-1H-imidazol-2-yl)carbonyl]amino}-3-methoxypiperidin-1-yl)-1,3-benzothiazole-7-carboxylic acid], in data set [1], the IC50 was 131 nM. The MIC in data set [2] amounted to 4 µg/mL. The IC50 at 48 h in data set [3] was above 200 µg/mL. Besides, the solubility in data set [4] (pH 1.2, simulated gastric fluid, 1st fluid for the disintegration test of the Japanese Pharmacopoeia, read-out: solubility in JP1 fluid) was 100 µg/mL (≈ 222 µM); in data set [4] (pH 6.8, aqueous buffer, 2nd fluid for the disintegration test of the Japanese Pharmacopoeia, read-out: solubility in JP2 fluid), 720 µg/mL (≈ 1600 µM).
